Measured values published in ChEMBL document CHEMBL3885881, “DrugMatrix”.

Species: Rattus norvegicus
Experiment: DrugMatrix - Regimen: Daily Repeat
Assay type: toxicity, organism-based, Sprague-Dawley
Set-up: regimen Daily Repeat, gender Male, age 6-8 weeks
Settings: in vivo, po, route oral GAVAGE, vehicle .5 % CMC; for ABSOLUTE BASOPHIL / ABSOLUTE EOSINOPHIL / ABSOLUTE LYMPHOCYTE / ABSOLUTE MONOCYTE / ABSOLUTE SEGMENTED NEUTROPHIL / BASOPHIL / EOSINOPHIL / ERYTHROCYTE COUNT / HEMATOCRIT / HEMOGLOBIN / LEUKOCYTE COUNT / LYMPHOCYTE / MEAN CORPUSCULAR HEMOGLOBIN / MEAN CORPUSCULAR HEMOGLOBIN CONCENTRATION / MEAN CORPUSCULAR VOLUME / MONOCYTE / NEUTROPHIL / NUCLEATED RED BLOOD CELLS / PLATELET COUNT: tissue Blood; for ALANINE AMINOTRANSFERASE / ALBUMIN / ALKALINE PHOSPHATASE / ASPARTATE AMINOTRANSFERASE / BLOOD UREA NITROGEN / CARBON DIOXIDE / CHLORIDE / CHOLESTEROL / CREATINE PHOSPHOKINASE / CREATININE / GLUCOSE / LACTATE DEHYDROGENASE / LIPASE / PHOSPHORUS / POTASSIUM / SODIUM / TOTAL BILIRUBIN / TOTAL PROTEIN / URIC ACID: tissue Plasma
[1] = 0 mg/kg, 72 h, dose level Control, time 3 day
[2] = 0 mg/kg, 120 h, dose level Control, time 5 day
[3] = 200 mg/kg, 72 h, dose level Low, time 3 day

CCn1cc(C(=O)O)c(=O)c2cc(F)c(N3CCNCC3)cc21 [NORFLOXACIN]
ABSOLUTE BASOPHIL [1]: 0 CELLS/uL
ABSOLUTE EOSINOPHIL [1]: 0 CELLS/uL
ABSOLUTE LYMPHOCYTE [1]: 12269.67 CELLS/uL
ABSOLUTE MONOCYTE [1]: 160.33 CELLS/uL
ABSOLUTE SEGMENTED NEUTROPHIL [1]: 970 CELLS/uL
BASOPHIL [1]: 0%
EOSINOPHIL [1]: 0%
ERYTHROCYTE COUNT [1]: 5.76 x10E6/uL
HEMATOCRIT [1]: 36.57%
HEMOGLOBIN [1]: 14.22 G/DL
LEUKOCYTE COUNT [1]: 13.4 x10E3/uL
LYMPHOCYTE [1]: 91.67%
MEAN CORPUSCULAR HEMOGLOBIN [1]: 24.67 pg
MEAN CORPUSCULAR HEMOGLOBIN CONCENTRATION [1]: 38.85 G/DL
MEAN CORPUSCULAR VOLUME [1]: 63.52 fL
MONOCYTE [1]: 1.17%
NEUTROPHIL [1]: 7.17%
NUCLEATED RED BLOOD CELLS [1]: 0.33 /100WBC
PLATELET COUNT [1]: 1250.83 x10E3/uL
ALANINE AMINOTRANSFERASE [1]: 49.17 u/L
ALBUMIN [1]: 4.33 G/DL
ALKALINE PHOSPHATASE [1]: 378.5 u/L
ASPARTATE AMINOTRANSFERASE [1]: 82.17 u/L
BLOOD UREA NITROGEN [1]: 15 mg/dL
CARBON DIOXIDE [1]: 34.33 mmol/L
CHLORIDE [1]: 99.17 MEQ/L
CHOLESTEROL [1]: 71.17 mg/dL
CREATINE PHOSPHOKINASE [1]: 258.67 u/L
CREATININE [1]: 0.18 mg/dL
GLUCOSE [1]: 142.67 mg/dL
LACTATE DEHYDROGENASE [1]: 154.33 u/L
LIPASE [1]: 9 u/L
PHOSPHORUS [1]: 11.67 mg/dL
POTASSIUM [1]: 7.13 MEQ/L
SODIUM [1]: 142.22 MEQ/L
TOTAL BILIRUBIN [1]: 0.18 mg/dL
TOTAL PROTEIN [1]: 5.77 G/DL
URIC ACID [1]: 1.55 mg/dL
ABSOLUTE BASOPHIL [2]: 0 CELLS/uL
ABSOLUTE EOSINOPHIL [2]: 23.33 CELLS/uL
ABSOLUTE LYMPHOCYTE [2]: 14943.67 CELLS/uL
ABSOLUTE MONOCYTE [2]: 32 CELLS/uL
ABSOLUTE SEGMENTED NEUTROPHIL [2]: 1084.33 CELLS/uL
BASOPHIL [2]: 0%
EOSINOPHIL [2]: 0.17%
ERYTHROCYTE COUNT [2]: 5.71 x10E6/uL
HEMATOCRIT [2]: 35.28%
HEMOGLOBIN [2]: 14.27 G/DL
LEUKOCYTE COUNT [2]: 16.08 x10E3/uL
LYMPHOCYTE [2]: 93%
MEAN CORPUSCULAR HEMOGLOBIN [2]: 25.02 pg
MEAN CORPUSCULAR HEMOGLOBIN CONCENTRATION [2]: 40.43 G/DL
MEAN CORPUSCULAR VOLUME [2]: 61.82 fL
MONOCYTE [2]: 0.17%
NEUTROPHIL [2]: 6.67%
NUCLEATED RED BLOOD CELLS [2]: 0.33 /100WBC
PLATELET COUNT [2]: 1274 x10E3/uL
ALANINE AMINOTRANSFERASE [2]: 54.17 u/L
ALBUMIN [2]: 4.22 G/DL
ALKALINE PHOSPHATASE [2]: 373.17 u/L
ASPARTATE AMINOTRANSFERASE [2]: 81.83 u/L
BLOOD UREA NITROGEN [2]: 16.67 mg/dL
CARBON DIOXIDE [2]: 30.33 mmol/L
CHLORIDE [2]: 99 MEQ/L
CHOLESTEROL [2]: 71 mg/dL
CREATINE PHOSPHOKINASE [2]: 273.5 u/L
CREATININE [2]: 0.22 mg/dL
GLUCOSE [2]: 141.83 mg/dL
LACTATE DEHYDROGENASE [2]: 153.67 u/L
LIPASE [2]: 10.33 u/L
PHOSPHORUS [2]: 11.38 mg/dL
POTASSIUM [2]: 7.08 MEQ/L
SODIUM [2]: 142.75 MEQ/L
TOTAL BILIRUBIN [2]: 0.18 mg/dL
TOTAL PROTEIN [2]: 6.1 G/DL
URIC ACID [2]: 1.67 mg/dL
ABSOLUTE BASOPHIL [3]: 0 CELLS/uL
ABSOLUTE EOSINOPHIL [3]: 0 CELLS/uL
ABSOLUTE LYMPHOCYTE [3]: 11949 CELLS/uL
ABSOLUTE MONOCYTE [3]: 111 CELLS/uL
ABSOLUTE SEGMENTED NEUTROPHIL [3]: 1006.67 CELLS/uL
BASOPHIL [3]: 0%
EOSINOPHIL [3]: 0%
ERYTHROCYTE COUNT [3]: 5.6 x10E6/uL
HEMATOCRIT [3]: 36.17%
HEMOGLOBIN [3]: 14.13 G/DL
LEUKOCYTE COUNT [3]: 13.07 x10E3/uL
LYMPHOCYTE [3]: 91.67%
MEAN CORPUSCULAR HEMOGLOBIN [3]: 25.27 pg
MEAN CORPUSCULAR HEMOGLOBIN CONCENTRATION [3]: 39.07 G/DL
MEAN CORPUSCULAR VOLUME [3]: 64.63 fL
MONOCYTE [3]: 1%
NEUTROPHIL [3]: 7.33%
NUCLEATED RED BLOOD CELLS [3]: 0 /100WBC
PLATELET COUNT [3]: 1470.67 x10E3/uL
ALANINE AMINOTRANSFERASE [3]: 63.33 u/L
ALBUMIN [3]: 4.33 G/DL
ALKALINE PHOSPHATASE [3]: 468 u/L
ASPARTATE AMINOTRANSFERASE [3]: 89 u/L
BLOOD UREA NITROGEN [3]: 13.67 mg/dL
CARBON DIOXIDE [3]: 28 mmol/L
CHLORIDE [3]: 102 MEQ/L
CHOLESTEROL [3]: 54.33 mg/dL
CREATINE PHOSPHOKINASE [3]: 294 u/L
CREATININE [3]: 0.26 mg/dL
GLUCOSE [3]: 137.33 mg/dL
LACTATE DEHYDROGENASE [3]: 260.67 u/L
LIPASE [3]: 10 u/L
PHOSPHORUS [3]: 13.5 mg/dL
POTASSIUM [3]: 6.81 MEQ/L
SODIUM [3]: 146.4 MEQ/L
TOTAL BILIRUBIN [3]: 0.23 mg/dL
TOTAL PROTEIN [3]: 6 G/DL
URIC ACID [3]: 2.13 mg/dL
